Assay results reported in patent US12428377B2, “Sodium-hydrogen exchanger 3 inhibitor compounds” (Eli Lilly and Company, priority 2019, dated 2025).
pIC50: −log10 of the molar value. Like-named read-outs stand apart in the source and are kept apart here.

Experiments:
NPT2b = target: T1, NPT2b (Homo sapiens, UniProt O95436); assay: NPT2b inhibition (selectivity)
T1 sequence (O95436 1-690): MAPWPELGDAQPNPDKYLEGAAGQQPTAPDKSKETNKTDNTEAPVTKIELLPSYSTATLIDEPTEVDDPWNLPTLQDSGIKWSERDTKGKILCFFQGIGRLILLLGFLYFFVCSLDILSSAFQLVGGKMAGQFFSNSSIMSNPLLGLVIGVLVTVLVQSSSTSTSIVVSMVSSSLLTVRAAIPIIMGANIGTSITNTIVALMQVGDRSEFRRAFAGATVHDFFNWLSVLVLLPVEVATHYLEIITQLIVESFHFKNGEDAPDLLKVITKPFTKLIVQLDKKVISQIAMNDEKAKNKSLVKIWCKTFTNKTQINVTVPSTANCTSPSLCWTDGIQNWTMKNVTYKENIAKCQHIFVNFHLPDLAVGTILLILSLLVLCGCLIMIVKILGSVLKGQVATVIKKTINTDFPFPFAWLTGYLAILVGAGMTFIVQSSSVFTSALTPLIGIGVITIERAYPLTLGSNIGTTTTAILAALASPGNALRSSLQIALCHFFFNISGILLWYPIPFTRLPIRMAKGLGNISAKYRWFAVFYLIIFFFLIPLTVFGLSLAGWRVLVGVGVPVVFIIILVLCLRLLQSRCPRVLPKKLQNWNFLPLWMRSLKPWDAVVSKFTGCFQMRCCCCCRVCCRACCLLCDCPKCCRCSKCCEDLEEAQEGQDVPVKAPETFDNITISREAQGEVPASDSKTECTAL

SGLT1 = target: T2, SGLT1 (Homo sapiens, UniProt P13866); assay: SGLT1 inhibition (selectivity)
T2 sequence (P13866 1-664): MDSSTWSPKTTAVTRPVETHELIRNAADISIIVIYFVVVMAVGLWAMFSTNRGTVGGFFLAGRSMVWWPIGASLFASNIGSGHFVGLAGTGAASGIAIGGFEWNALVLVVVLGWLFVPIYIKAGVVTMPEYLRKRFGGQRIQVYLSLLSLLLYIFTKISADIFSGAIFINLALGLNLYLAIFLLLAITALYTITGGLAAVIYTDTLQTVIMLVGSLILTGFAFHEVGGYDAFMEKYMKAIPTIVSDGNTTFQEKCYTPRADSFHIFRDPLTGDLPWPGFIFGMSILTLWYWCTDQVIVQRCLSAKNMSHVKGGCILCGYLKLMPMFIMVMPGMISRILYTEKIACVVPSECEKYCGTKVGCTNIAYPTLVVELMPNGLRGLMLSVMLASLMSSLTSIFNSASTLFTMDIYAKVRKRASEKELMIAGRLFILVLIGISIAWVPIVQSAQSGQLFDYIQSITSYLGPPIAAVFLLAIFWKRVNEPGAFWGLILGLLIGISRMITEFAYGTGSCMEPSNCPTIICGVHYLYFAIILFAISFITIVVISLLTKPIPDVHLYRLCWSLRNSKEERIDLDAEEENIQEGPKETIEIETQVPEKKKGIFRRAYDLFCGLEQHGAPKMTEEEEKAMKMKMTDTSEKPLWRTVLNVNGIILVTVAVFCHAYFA

Male Sprague-Dawley rats = assay: Effect of Example 2 on sodium and phosphate absorption (urinary excretion after oral NaH2PO4 bolus); format: in vivo, rat; details: 4 h urine; for ED50: Rattus norvegicus, oral, NaH2PO4 bolus 690 mg/kg; for Ratio of Urinary-to-Dietary Phosphorus / Ratio of Urinary-to-Dietary Sodium: mean ± SEM
Description: Effect of Example 2 on Sodium and Phosphate Absorption Urinary sodium and phosphate excretion following an oral bolus dose of sodium phosphate is an indirect measure of sodium and phosphate absorption in the intestine. Male Sprague-Dawley rats at an age of about 7 weeks with body weights ranging from 195 to 221 g are randomized into groups based on equal mean body weights. Example 2 at 0.3 mg/mL (final dose 3 mg/kg dosed in 10 mL/kg volume) is formulated by adding 1% HEC to a glass vial containing a pre-weighed amount of compound, and then probe sonicating until it appears as a uniform suspension. […] The subsequent dosing solutions of Example 2 are prepared by serial dilutions with 1% HEC. NaH2PO4 at 34.5 mg/ml (final dose 690 mg/kg dosed in 20 ml/kg volume) is formulated by adding sterile water. On the day of the study, the animals are placed into clean cages without food but with access to water for a 4 h fast before the study. Rats are orally dosed with vehicle or varying doses of Example 2. 15 min later, animals are dosed with sterile water or NaH2PO4, then immediately transferred to metabolic cages. Urine samples are collected for 4 h. Net urine volume is recorded. Urinary sodium, creatinine, and phosphate are assessed using a clinical biochemistry analyzer. Values expressed as the ratio of urinary-to-dietary phosphorus or sodium are calculated and presented as mean±SEM. Curves are fitted with a 4-parameter logistic curve fitting tool GraphPod Prism 6 to calculate the ED50. For the purpose of curve fitting, the dose of Example 2 is artificially set to 0.00001 mg/kg in the software for the vehicle-alone group.

SMILES: CN1Cc2c(Cl)cc(Cl)cc2[C@H](c2cccc(S(=O)(=O)NCCOCCOCCN/C(=N\C(N)=O)NCCCCN/C(=N/C(N)=O)NCCOCCOCCNS(=O)(=O)c3cccc([C@@H]4CN(C)Cc5c(Cl)cc(Cl)cc54)c3)c2)C1.Cl.Cl [Example 2, [[4-[[N′-Carbamoyl-N-[2-[2-[2-[[3-[(4S)-6,8-dichloro-2-methyl-3,4-dihydro-1H-isoquinolin-4-yl]phenyl]sulfonylamino]ethoxy]ethoxy]ethyl]carbamimidoyl]amino]butylamino]-[2-[2-[2-[[3-[(4S)-6,8-dichloro-2-methyl-3,4-dihydro-1H-isoquinolin-4-yl]phenyl]sulfonylamino]ethoxy]ethoxy]ethylamino]methylene]urea dihydrochloride]
- pIC50 (NPT2b): 4.23
- pIC50 (SGLT1): 5.18
- ED50 (Male Sprague-Dawley rats; read-out: ED50 on sodium excretion): 0.058 mg/kg
- ED50 (Male Sprague-Dawley rats; read-out: ED50 on urinary phosphorus excretion): 0.041 mg/kg
- Ratio of Urinary-to-Dietary Phosphorus (Male Sprague-Dawley rats; oral 0.001 mg/kg): 0.337 ± 0.017
- Ratio of Urinary-to-Dietary Sodium (Male Sprague-Dawley rats; oral 0.001 mg/kg): 0.326 ± 0.042
- Ratio of Urinary-to-Dietary Phosphorus (Male Sprague-Dawley rats; oral 0.003 mg/kg): 0.350 ± 0.023
- Ratio of Urinary-to-Dietary Sodium (Male Sprague-Dawley rats; oral 0.003 mg/kg): 0.413 ± 0.055
- Ratio of Urinary-to-Dietary Phosphorus (Male Sprague-Dawley rats; oral 0.01 mg/kg): 0.320 ± 0.042
- Ratio of Urinary-to-Dietary Sodium (Male Sprague-Dawley rats; oral 0.01 mg/kg): 0.290 ± 0.06
- Ratio of Urinary-to-Dietary Phosphorus (Male Sprague-Dawley rats; oral 0.03 mg/kg): 0.268 ± 0.04
- Ratio of Urinary-to-Dietary Sodium (Male Sprague-Dawley rats; oral 0.03 mg/kg): 0.276 ± 0.06
- Ratio of Urinary-to-Dietary Phosphorus (Male Sprague-Dawley rats; oral 0.1 mg/kg): 0.197 ± 0.045
- Ratio of Urinary-to-Dietary Sodium (Male Sprague-Dawley rats; oral 0.1 mg/kg): 0.105 ± 0.042
- Ratio of Urinary-to-Dietary Phosphorus (Male Sprague-Dawley rats; oral 0.3 mg/kg): 0.168 ± 0.027
- Ratio of Urinary-to-Dietary Sodium (Male Sprague-Dawley rats; oral 0.3 mg/kg): 0.039 ± 0.010
- Ratio of Urinary-to-Dietary Phosphorus (Male Sprague-Dawley rats; oral 1 mg/kg): 0.191 ± 0.039
- Ratio of Urinary-to-Dietary Sodium (Male Sprague-Dawley rats; oral 1 mg/kg): 0.051 ± 0.027
- Ratio of Urinary-to-Dietary Phosphorus (Male Sprague-Dawley rats; oral 3 mg/kg): 0.144 ± 0.009
- Ratio of Urinary-to-Dietary Sodium (Male Sprague-Dawley rats; oral 3 mg/kg): 0.022 ± 0.009
